The target in experiment [1] is T1, MMP-1 (Homo sapiens, UniProt P03956).
T1 sequence (P03956 100-469): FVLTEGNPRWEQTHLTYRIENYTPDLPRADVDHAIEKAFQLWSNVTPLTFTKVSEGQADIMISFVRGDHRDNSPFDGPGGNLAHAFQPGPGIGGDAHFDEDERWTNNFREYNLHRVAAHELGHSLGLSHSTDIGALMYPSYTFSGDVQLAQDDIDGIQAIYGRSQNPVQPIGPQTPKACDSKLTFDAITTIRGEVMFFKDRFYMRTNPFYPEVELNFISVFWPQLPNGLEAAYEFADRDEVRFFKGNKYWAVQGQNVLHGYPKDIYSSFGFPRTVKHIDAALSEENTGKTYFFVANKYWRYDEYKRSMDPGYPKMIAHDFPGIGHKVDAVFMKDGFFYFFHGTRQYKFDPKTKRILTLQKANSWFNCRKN
The experiment is described as follows: Assay for inhibition of collagenase. To be noted: human fibroblast collagenase activated with APMA; substrate fluorescein-labeled bovine type I collagen; 35°C, 2 hours, pH 7.5. Type of experiment: biochemical. The method, then:
(§1) Described below are assays for biological activities of the compounds according to the present invention, formulations, dosage forms and dosage levels thereof, and miscellaneous matters. The efficacy of the compounds represented by the formula (I) according to the present invention as inhibitors of human fibroblast collagenase (metalloproteinase involved in the breakdown of tissues) is determined by a procedure based on the method of Y. Murawaki et al., Journal of Hepatology, 18, p328-334 (1993). The efficacy of the compounds (I) of this invention as inhibitors of human fibroblast stromelysin is determined by a procedure based on the method of S. S. Twining, Anal. Biochem., 143, p30 (1984). The assay results obtained are shown hereinbelow, together with biological examples which illustrate embodiments of the assay protocols.
The efficacy of compounds of the present invention to act as inhibitors of human fibroblast collagenase was determined by the procedure of Y. Murawaki et al. (Journal of Hepatology, 18, p.328-334, 1993).
Procollagenase was activated by incubation with 2 mM 4-aminophenylmercuric acetate (APMA) at 35°C for 2 hours. The inhibition was assayed using, as a substrate, fluorescein-labeled bovine type I collagen. To a solution of the substrate (0.5 mg/ml) in a 50 mM Tris-HCl buffer, pH 7.5, containing 0.4M aqueous sodium chloride and 10 mM aqueous calcium chloride was added the activated collagenase. The resultant solution was incubated at 35°C for 2 hours. The digestion of the substrate with the enzyme was stopped by addition of 80 mM o-phenanthroline, followed by addition of a porcine elastase solution formed by dissolving 25µ g/ml porcine elastase in the aforementioned Tris-HCl buffer. The mixture was incubated at 37°C for 10 minutes. To the resulting solution was added 70% ethanol, and a 170 mM Tris-HCl buffer, pH 9.5, containing 0.67 M aqueous sodium chloride. Undigested substrates were precipitated by centrifugation at 3000 x g for 20 minutes. The supernatant was collected and the fluorescence was read using an excitation wavelength of 495 nm and an emission wavelength of 520 nm. The inhibitory potency of the compounds was calculated. IC50 represents the concentration of each test compound requited for 50% inhibition of cleavage of substrates by the enzyme alone. The compounds of the present invention have potent inhibitory activities (Table 1).

Experiment [2] addresses MMP-3 (Homo sapiens, UniProt P08254). The experiment is described as follows: Assay for inhibition of stromelysin. Type of experiment: biochemical. To be noted: human fibroblast stromelysin activated with human plasmin; substrate fluorescein-labeled casein; 37°C, 2 hours, pH 7.8. The method, then: as §1
The efficacy of compounds of the present invention to act as inhibitors of human fibroblast stromelysin was determined by the procedure of Twining (Anal. Biochem., 143, p.30, 1984).
Prostromelysin was activated by incubation with 20µ g/ml human plasmin at 37°C for 2 hours, and the reaction was stopped by addition of 2.8 mg/ml aqueous diisopropyl fluorophosphate. The inhibition was assayed using, as a substrate, fluorescein-labeled casein. To a solution of the substrate (1 mg/ml) in a 50 mM Tris-HCl buffer, pH 7.8, containing 10mM aqueous calcium chloride was added the activated stromelysin. The resultant solution was incubated at 37°C for 2 hours. The digestion of the substrate with the enzyme was stopped by addition of 5% trichloroacetic acid. Undigested substrates were precipitated by centrifugation at 3000 x g for 20 minutes. The supernatant was collected, followed by addition of a 0.5M Tris-HCl buffer, pH 8.5. The fluorescence was read using an excitation wavelength of 495 nm and an emission wavelength of 520 nm. The inhibitory potency of the compounds was calculated. IC50 represents the concentration of each test compound requited for 50% inhibition of cleavage of substrates by the enzyme alone. […]

Counter-ions that a name gives are not always drawn.

MMP-3, sequence (P08254 100-477): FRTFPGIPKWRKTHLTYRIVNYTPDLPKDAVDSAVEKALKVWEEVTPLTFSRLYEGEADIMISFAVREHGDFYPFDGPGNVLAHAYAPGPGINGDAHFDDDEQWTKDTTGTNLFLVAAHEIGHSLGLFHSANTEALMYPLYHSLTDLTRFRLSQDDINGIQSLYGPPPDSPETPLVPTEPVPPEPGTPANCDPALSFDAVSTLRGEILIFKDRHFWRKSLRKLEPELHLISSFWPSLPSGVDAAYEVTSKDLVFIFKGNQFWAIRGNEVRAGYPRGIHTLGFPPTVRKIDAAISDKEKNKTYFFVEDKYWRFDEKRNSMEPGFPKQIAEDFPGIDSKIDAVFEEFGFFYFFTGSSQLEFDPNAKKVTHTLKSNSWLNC

A word on the IC50: it is the concentration that inhibits the measured activity by half. Read a high IC50 as weaker potency in that assay. For `COC(=O)[C@H](Cc1ccc(CNC(C)=N)cc1)NC(=O)[C@H](CC(C)C)[C@H](CCCc1ccccc1)C(=O)NO` [Compound No. 9, N^a-[4-(N-Hydroxyamino)-2(R)-isobutyl-3(S)-(3-phenylpropyl)-succinyl]-L-4'-acetimidoyliminomethylphenylalanine methyl ester 1 hydrochloride], the 50% inhibitory concentration (IC50) in experiment [1] was determined as 30 nM; in experiment [2], 20 nM. Consider `COC(=O)[C@H](Cc1ccc(CN)cc1)NC(=O)[C@H](CC(C)C)[C@H](CCCc1ccccc1)C(=O)NO` [Compound No. 7, N^a-[4-(N-Hydroxyamino)-2(R)-isobutyl-3(S)-(3-phenylpropyl)-succinyl]-L-4'-aminomethylphenylalanine methyl ester · 1 acetate], for which half-maximal inhibition in experiment [1] (IC50) required 167 nM. For the molecule `CC(C)C[C@@H](C(=O)N[C@@H](Cc1ccc(CN)cc1)C(=O)O)[C@H](CCCc1ccccc1)C(=O)NO` [Compound No. 11, N^a-[4-(N-Hydroxyamino)-2(R)-isobutyl-3(S)-(3-phenylpropyl)-succinyl]-L-4'-aminomethylphenylalanine], the 50% inhibitory concentration (IC50) in experiment [1] was 418 nM; in experiment [2], 29 nM. The like results for `CC(=N)NCc1ccc(C[C@H](NC(=O)[C@H](CC(C)C)[C@H](CCCc2ccccc2)C(=O)NO)C(=O)O)cc1` [Compound No. 10, N^a-[4-(N-Hydroxyamino)-2(R)-isobutyl-3(S)-(3-phenylpropyl)-succinyl]-L-4'-acetimidoyliminomethylphenylalanine · 1 acetate] were, in that order, 500 nM and 70 nM. Turning to `CC(C)C[C@@H](C(=O)N[C@@H](Cc1ccc(CN)cc1)C(=O)O)[C@H](CCCc1ccccc1)C(=O)NO` [Compound No. 8, N^a-[4-(N-Hydroxyamino)-2(R)-isobutyl-3(S)-(3-phenylpropyl)-succinyl]-L-4'-aminomethylphenylalanine · 1 hydrochloride], the IC50 in experiment [1] is 340 nM.

The values are drawn from patent EP1179529A1, “NOVEL HYDROXAMIC ACID DERIVATIVES” (Daiichi Fine Chemical Co., Ltd., priority 1999, dated 2000).
